{"source": "patent US20250074981A1", "about": "“COMBINATION THERAPY WITH DEXAMETHASONE AND TUMOR-SPECIFIC T CELL ENGAGING MULTI-SPECIFIC ANTIBODIES FOR TREATING CANCER” (MEMORIAL SLOAN-KETTERING CANCER CENTER, priority 2021, published 2025)", "key": {"GD2(+) osteosarcoma PDX": {"tested_on": "GD2(+) osteosarcoma PDX", "experiment": "Bioluminescence imaging of Luc(+) GD2-EATs in GD2(+) osteosarcoma PDX", "format": "in vivo, mice", "settings": "GD2-EATs plus HD dexamethasone", "method": "(§1) T cells isolated from peripheral blood were stimulated with Dynabeads™ Human T-Activator CD3/CD28 for 24 hours. T cells were transduced with retroviral constructs containing tdTomato and click beetle red luciferase in RetroNectin-coated 6-well plates in the presence of IL-2 (100 IU/ml) and protamine sulfate ([…]). Transduced T cells were cultured for 8 days before being used in animal experiments.\n(§2) Mice were anesthetized and imaged after intravenous injection of 3 mg of D-luciferin (Gold Biotechnology, St. Louis, MO) on different days post T cell injection. Images were acquired using IVIS Spectrum CT In Vivo Imaging System (Caliper Life Sciences, Waltham, MA). Bioluminescence images were overlaid with photographs, and regions of interest (ROI) were drawn based on the location and contour of tumor using Living image 2.60 (Xenogen, Alameda, CA). The total counts of photons (photon/s) were obtained. Bioluminescence signals (total flux, photon/s) before T cell injection were used as baselines."}, "M37 breast cancer PDX": {"tested_on": "M37 breast cancer PDX", "experiment": "In vivo anti-tumor effect in M37 breast cancer PDX", "design": "species or system mice", "settings": "low and intermediate dosage of dexamethasone; due to diarrhea from C. difficile infection", "method": "Increasing dosage of dexamethasone was tested as a premedication administered i.p. before the i.v. injection of HER2×CD3-BsAb plus activated human T cells in mice xenografted s.c. with M37 breast cancer PDX using the schedule detailed in FIG. 9A. The three dosages of intraperitoneal dexamethasone were 2 mg/kg (Dex 2), 8 mg/kg (Dex 8) and 32 mg/kg (Dex 32) once a week×3 weeks."}, "neuroblastoma PDXs": {"tested_on": "neuroblastoma PDXs", "experiment": "Flow cytometry of tumor infiltrating myeloid cells and lymphocytes in neuroblastoma PDXs", "format": "in vivo, mice", "settings": "day 10 post-treatment", "text": "(§3) For blood and tumor samples from mice, the following antibodies were purchased from Biolegend: anti-human CD45-APC (HI30), anti-human CD3-Percp/Cy5.5 (SK7), anti-human CD8-FITC, anti-human CD4-PE/Cy7, anti-mouse CD45-APC, anti-mouse CD45-Brilliant Violet 711™ (30-F11), anti-mouse CD11b-Brilliant Violet 570™ (M1/70), anti-mouse Ly6G-FITC, anti-mouse Ly6C-PerCP/Cy5.5, and anti-mouse F4/80-PE/Cy7. Statistical analysis\n(§4) Flow cytometry analysis. For flow cytometry analyses of blood and tumor samples from mice, the following antibodies were purchased from Biolegend: anti-human CD45-APC (HI30), anti-human CD3-Percp/Cy5.5 (SK7), anti-human CD8-FITC, anti-human CD4-PE/Cy7, anti-mouse CD45-Brilliant Violet 711™ (30-F11), anti-mouse CD11b-Brilliant Violet 570™ (M1/70), anti-mouse Ly6G-FITC, anti-mouse Ly6C-PerCP/Cy5.5, and anti-mouse F4/80-PE."}, "[1]": {"tested_on": "osteosarcoma cell line 143B xenografts", "format": "in vivo, mice", "settings": "day 60 post-treatment, agents added to GD2-EATs, vs GD2-EATs alone", "text": "as §3, §4"}, "[2]": {"tested_on": "osteosarcoma cell line 143B xenografts", "format": "in vivo, mice", "settings": "agents added to GD2-EATs, vs GD2-EATs alone", "method": "Immunohistochemistry (IHC) and immunofluorescence (IF) staining were performed at the MSK Molecular Cytology Core Facility using Discovery XT processor (Ventana Medical Systems, Oro Valley, AZ) as described by Xu H, et al., Cancer Immunol Res 3: 266-277 (2015), the entirety of which is incorporated herein by reference. Tumor samples were fixed and embedded in paraffin. Anti-human CD45, anti-human CD3, and anti-mouse CD68 antibodies were used, which was followed by biotinylated secondary antibody. The detection was performed using a DAB detection kit (Ventana Medical Systems, Oro Valley, AZ) or Alexa Fluor™ 488 or 568 Tyramide Reagent (Invitrogen, Carlsbad, CA). IHC images were captured from tumor sections using a Nikon ECLIPSE Ni-U microscope and NIS-Elements 4.0 imaging software. IF images were captured using Leica Inverted Confocal SP8 and processed with Imaris (Bitplane, Zurich, Switzerland). Antigen positive cells were counted with Qupath 0.1.2.\nImmunohistochemistry and immunofluorescence staining. Immunohistochemistry (TIC) staining were performed at the MSK Molecular Cytology Core Facility using Discovery XT processor (Ventana Medical Systems). Tumor samples were fixed and embedded in paraffin. […] Antigen positive cells were counted with Qupath 0.1.2 or using positive pixel count analysis."}, "[3]": {"tested_on": "HER2(+) osteosarcoma PDXs, HGSOS", "experiment": "Bioluminescence imaging of Luc(+) HER2-EATs in HER2(+) osteosarcoma PDX (HGSOS / HGSOC1)", "format": "in vivo, mice", "settings": "control HER2-EATs", "method": "as §1, §2\nT cell transduction. T cells isolated from peripheral blood were stimulated with Dynabeads™ Human T-Activator CD3/CD28 for 24 hours. T cells were transduced with retroviral constructs containing tdTomato and click beetle red luciferase in RetroNectin-coated 6-well plates in the presence of IL-2 (100 IU/ml) and protamine sulfate (4 μg/mL). […]"}, "hVEGF": {"tested_on": "hVEGF", "experiment": "Serum VEGF levels by Quantikine ELISA, HGSOC1 ovarian cancer PDX mice", "format": "in vivo, human", "settings": "day 5 post-treatment, 48 hours after 2nd dose; with HER2-EATs", "method": "Concentration of VEGF serum levels were measured using a commercially available enzyme-linked immunosorbent assay (ELISA) kit (R&D Systems, Minneapolis, MN) according to the manufacturer's instruction. Briefly, serum samples and standards were incubated for 2 hours in a microplate pre-coated with human or murine anti-VEGF monoclonal antibodies. After washing three times, enzyme-linked anti-VEGF polyclonal antibodies were added. Unbound antibodies were removed by washing. […] All samples were run in triplicate, and a standard curve was established for each assay. The sensitivity of the assay was <9.0 pg/ml. Inter- and intra-assay variations were <10%.\nMeasurement of serum VEGF levels. Serum VEGF levels in murine plasma were measured using Quantikine enzyme-linked immunosorbent assay (ELISA) kit (R and D Systems Cat #DVE00, RRID:AB_2800364) according to the manufacturer's instruction. […] All samples were run in triplicate, and a standard curve was established for each assay."}, "[4]": {"tested_on": "TH1 cell cytokines (IL-2, IFN-γ, and TNF-α)", "experiment": "TH1 cell cytokine levels after GD2-EATs with VEGF blockades, neuroblastoma PDX mice", "format": "in vivo", "settings": "2 hours after the first dose of GD2-EATs; combination group", "method": "Cytokine release assays. EAT-induced human cytokine release was analyzed in vitro and in vivo. Human Th1 cell released cytokines were analyzed by LEGENDplex™ Human Th1 Panel (Biolegend, Cat #741035). Five T cell cytokines including IL-2, IL-6, IL-10, IFN-γ and TNF-α were analyzed using mouse serum after treatment with EATs with or without VEGF blockade."}, "GD2(+) neuroblastoma PDX": {"tested_on": "GD2(+) neuroblastoma PDX", "experiment": "Bioluminescence imaging of Luc(+) GD2-EATs in GD2(+) neuroblastoma PDX", "format": "in vivo, mice", "method": "T cell transduction. T cells isolated from peripheral blood were stimulated with Dynabeads™ Human T-Activator CD3/CD28 for 24 hours. T cells were transduced with retroviral constructs containing tdTomato and click beetle red luciferase in RetroNectin-coated 6-well plates in the presence of IL-2 (100 IU/ml) and protamine sulfate (4 μg/mL). Transduced T cells were cultured for 8 days before being used in animal experiments.\nas §2, with “Bioluminescence imaging. Mice” for “Mice”, “Biotechnology)” for “Biotechnology, St. Louis, MO)”, “vivo” for “Vivo”, “Sciences).” for “Sciences, Waltham, MA).”, “(Xenogen).” for “(Xenogen, Alameda, CA).”"}, "[5]": {"tested_on": "neuroblastoma patient-derived xenografts", "experiment": "IHC positive pixel count analysis of CD3, CD4, CD8 T cells in neuroblastoma PDXs", "format": "in vivo, mice", "settings": "day 10 post-treatment; added to GD2-EATs", "method": "(§5) Immunohistochemistry and immunofluorescence staining. Immunohistochemistry (TIC) staining were performed at the MSK Molecular Cytology Core Facility using Discovery XT processor (Ventana Medical Systems). Tumor samples were fixed and embedded in paraffin. Anti-human CD45, anti-human CD3, anti-human CD4, anti-human CD8, anti-mouse CD31 antibodies were used, which was followed by biotinylated secondary antibody. The detection was performed using a DAB detection kit (Ventana Medical Systems) or Alexa Fluor™ 488 or 568 Tyramide Reagent (Invitrogen). IHC images were captured from tumor sections using a Nikon ECLIPSE Ni-U microscope and NIS-Elements 4.0 imaging software. Antigen positive cells were counted with Qupath 0.1.2 or using positive pixel count analysis.\n(§6) Positive Pixel Count Analysis. IHC slides were scanned (Aperio ScanScope XT) and analyzed by comparing positive pixel counts (Aperio Technologies). For analyzing tumor infiltrating lymphocytes, the largest area of intact tumor tissue was included, and oblique sections were avoided. Each slide was visually inspected to ensure specificity and sensitivity of antibody staining. After positive pixel count analysis was run, analyzed slides were examined to confirm that positively identified pixels were consistent with lymphocyte staining and not background staining. Percentages were calculated as the total number of positive pixels divided by the total number of pixels (% positive pixels/total pixels)."}, "[6]": {"tested_on": "red blood cell, leukocyte, or platelet counts", "experiment": "Complete blood count after GD2-EATs with VEGF blockades, neuroblastoma PDX mice", "format": "in vivo", "settings": "GD2-EATs following bevacizumab or DC101", "method": "To test if VEGF blockades affected complete blood cell counts (CBC) or frequencies of tumor infiltrating myeloid cells (TIMs), CBC and flow cytometry analysis of tumors were done after the first and third doses of GD2-EATs following bevacizumab or DC101. […] The effect on TIMs was also analyzed using flow cytometry of tumors. […] TIM analysis in a second tumor model was repeated using 143B CDXs where blood and tumors were analyzed on day 5 and day 60 post treatment, respectively."}, "tumor microvasculature": {"tested_on": "tumor microvasculature", "experiment": "IHC of intratumoral blood vessels (mCD31) and HIF-1α in neuroblastoma PDXs", "format": "in vivo, mice", "method": "as §5\nas §6, with “Each slide was visually inspected to ensure specificity and sensitivity of antibody staining.” left out"}, "[7]": {"tested_on": "osteosarcoma cell line 143B xenografts", "experiment": "In vivo anti-tumor effect against osteosarcoma cell line 143B xenografts", "procedure": "All animal procedures were performed in compliance with Memorial Sloan Kettering Cancer Center's institutional Animal Care and Use Committee (IACUC) guidelines. BALB/c Rag2^−/−IL-2Rγc^−/− (BRG) mice were used in this study. Target antigen (+) patient-derived xenograft (PDX) was established from fresh surgical specimens with MSKCC IRB approval. Tumor cells in Matrigel (Corning Corp, Corning, NY) were implanted subcutaneously on the right flank of each mouse. Tumor size was measured using handheld Peira TM900 imaging device (Piera, Brussels, BE). Tumor growth curves and overall survival was analyzed, and the overall survival was defined as the time from start of treatment to when tumor volume reached 2000 mm^3. To define the well-being of mice, CBC analyses, changes in body weight, behavior and physical appearance were monitored. All animal experiments were repeated twice more with different donor's T cells to ensure that the results were reliable.\nIn vivo anti-tumor effect was compared by area under curve (AUC) and survival curves, which were calculated. Differences between samples indicated in the figures were tested for statistical significance by two-tailed Student's t-test for two sets of data while one-way ANOVA with Tukey's post hoc test was used to among three or more sets of data. […]\nTherapeutic study with mouse xenograft model All animal procedures were performed in compliance with Memorial Sloan Kettering Cancer Center's institutional Animal Care and Use Committee (IACUC) guidelines. […] Treatment was initiated after tumors were established, average tumor volume of 100 mm^3 when measured using TM900 scanner (Piera, Brussels, BE). […] Tumor growth curves and overall survival were analyzed, and the overall survival was defined as the time from start of treatment to when tumor volume reached 2000 mm^3. To define the well-being of mice, CBC analyses, changes in body weight, behavior and physical appearance were monitored. […]\nStatistical analysis. […] Area under curves (AUCs) of tumor growth were calculated and compared among groups. […]"}, "[8]": {"settings": "agent added to GD2-EATs, compared to GD2-EATs alone"}}, "note": "Like-named read-outs stand apart in the source and are kept apart here."}
{"compound": "C[C@@H]1C[C@H]2[C@@H]3CCC4=CC(=O)C=C[C@]4(C)[C@@]3(F)[C@@H](O)C[C@]2(C)[C@@]1(O)C(=O)CO", "note": "[dexamethasone]", "values": [{"measurement": "mean signal intensity on day 5 vs GD2-EATs alone", "setting": "GD2(+) osteosarcoma PDX", "result": "more than 10 times"}, {"measurement": "weight loss", "setting": "M37 breast cancer PDX", "result": "suffered weight loss around day 30 post treatment"}]}
{"compound": "bevacizumab: anti-human VEGF (hVEGF) antibody bevacizumab", "values": [{"measurement": "frequencies of intratumoral hCD45(+) T cells", "setting": "neuroblastoma PDXs", "result": "much more pronounced"}, {"measurement": "tumor infiltrating hCD45(+) and CD8(+) T cells (TILs)", "setting": "[1]", "result": "significantly increased"}, {"measurement": "tumor infiltrating hCD45(+) and CD8(+) T cells (TILs)", "setting": "[1]; listed as anti-VEGF", "result": "increased frequencies of tumor infiltrating hCD45(+) T cells and CD8(+) T cells"}, {"measurement": "CD3+ T cell infiltration / count in tumors (IHC)", "setting": "[2]", "result": "significantly increased"}, {"measurement": "CD3+ T cell infiltration / count in tumors (IHC)", "setting": "[2]; listed as anti-VEGF", "result": "significantly increased T cell count"}, {"measurement": "Fold increase in BLI (AUC-BLI)", "setting": "[3]", "result": 7.5}, {"measurement": "serum h-VEGF levels", "setting": "hVEGF", "result": "significantly reduced serum h-VEGF levels"}, {"measurement": "TH1 cell cytokines (IL-2, IFN-γ, and TNF-α)", "setting": "[4]", "result": "significantly lower"}, {"measurement": "TIL persistence", "setting": "GD2(+) neuroblastoma PDX; added to GD2-EATs", "result": "significantly prolonging TIL persistence"}, {"measurement": "Fold increase in BLI (AUC-BLI)", "setting": "GD2(+) neuroblastoma PDX; neuroblastoma PDX, control GD2-EATs", "result": 2.8}, {"measurement": "CD4(+) TIL increase compared to GD2-EATs alone", "setting": "[5]", "result": 1.1, "unit": "fold"}, {"measurement": "CD8(+) TIL increase compared to GD2-EATs alone", "setting": "[5]", "result": 5, "unit": "fold"}, {"measurement": "increase of CD3(+) TILs compared to GD2-EATs alone", "setting": "[5]", "result": 3, "unit": "fold"}, {"measurement": "red blood cell, leukocyte, or platelet counts", "setting": "[6]", "result": "no significant changes"}, {"measurement": "high endothelial venules (HEVs) in tumors", "setting": "tumor microvasculature; combined with GD2-EATs", "result": "induced high endothelial venules (HEVs) in tumors"}, {"measurement": "mCD31(+) blood vessels", "setting": "tumor microvasculature; day 10 post-treatment", "result": "significant increase in mCD31(+) blood vessels"}, {"measurement": "anti-tumor effect", "setting": "[7]; VEGF blockade with unarmed T cells", "result": "did not show any anti-tumor effect"}, {"measurement": "survival", "setting": "[7]; [8]", "result": "prolonging mouse survival"}, {"measurement": "tumor control / anti-tumor response", "setting": "[7]; [8]", "result": "significantly improved"}]}
